Measured values: patent US10975030B2, “Grp94 selective inhibitors and uses thereof” (University of Kansas, priority 2016, dated 2021)
Like-named read-outs stand apart in the source and are kept apart here.

How the values were obtained:
[1] = target: Grp94 (recombinant cGrp94) (Canis lupus familiaris (Dog) (Canis familiaris), UniProt P41148); test: Fluorescence polarization (FP) assay, cGrp94 with FITC-GDA; assay type: binding
Method: (§1) Fluorescence Polarization. Assay buffer (25 μL, 20 mM HEPES pH 7.3, 50 mM KCl, 5 mM MgCl2, 1 mM DTT, 20 mM Na2MoO4, 0.01% NP-40, and 0.5 mg/mL BGG) was added to 96-well plate (black well, black bottom) followed by the desired compound at the indicated final concentrations in DMSO (1% DMSO final concentration). […] Plates were incubated with rocking for 5 h at 4° C. […] Percent FITC-GDA bound was determined by using the DMSO millipolarization unit (mP) as the 100% bound value and the 0% for FITC-GDA. Kd values were calculated from separate experiments performed in triplicate using GraphPad Prism.

Hsp90α = Hsp90α (Homo sapiens (Human), UniProt P07900); test: Fluorescence polarization (FP) assay, Hsp90α; assay type: binding
Method: as §1

[2] = test system: integrin α2, integrin αL, Syne2, VAMP2, Rab10 in PC3-MM2 cells; test: Cell fractionation and Western blot analysis of PC3-MM2 cells; assay type: cell-based; conditions: 30 μM, 24 h, cytoplasmic (Cyto) fraction, compared to DMSO, FIG. 2A
Method: (§2) Chemicals and Cell culture. Compounds were dissolved in DMSO and stored at −20° C. until use. The PC3-MM2 and MDA-MB-231 cells were maintained in DMEM (Cellgro) media supplemented with streptomycin (500 μg/mL), penicillin (100 units/mL) and 10% FBS at 37° C. and 5% CO2.
(§3) Antibodies. The following antibodies were used for western blotting and/or immunofluorescence: goat anti-integrin α L #sc6609, rabbit anti-SYNE2 #sc99066, and rabbit anti-actin #sc1616-R (Santa Cruz Biotech-nology, Santa Cruz, Calif.); rabbit anti-Integrin α 2 #ab181548, rabbit anti-VAMP2 #ab3347 (Abcam, Cambridge, Mass.); Phalloidin 647 #A22287 (Invitrogen, Carlsbad Calif.); rabbit anti-Rab10 #4262S (Cell Signaling Technology, Danvers, Mass.).
Cell fractionation and Western Blot Analysis. […] After sedimenting the cell debris, the protein concentration of each lysate was measured in quadruplicate using the BCA protein assay and bovine serum albumin as the standard. The coefficient of variation was determined for each set of quadruplicate measures and if the variability exceeded 5%, the protein assay was repeated for that set of samples. […]

PC3-MM2 cells = test: Immunofluorescence / confocal microscopy analysis of PC3-MM2 cells; assay type: cell-based; conditions: FIG. 2B; for F-actin localization: confocal microscopy, versus DMSO treated cells; for integrin α2 localization: immunofluorescence, versus untreated cells
Method: as §2, §3
Immunofluorescence Analysis. For cell imaging, 1 μm-Slide 8 well ibidiTreat IBIDI glass slides were used. PC3-MM2 cells were fixed with freshly made 4% (w/w) paraformaldehyde in PBS for 15 min, permeabilized with 0.1% (w/w) Tween 20 in PBS for 5 min and quenched with 0.1% (w/w) sodium borohydride for 5 min. The sections were blocked with 3% (w/w) BSA in PBS for 1 h and incubated with the primary antibody at a 1:100 concentration in 1% BSA in PBS overnight, prior to incubation with secondary antibody conjugated with Alexa Fluor 568 for 3 h. The sections were counterstained with DAPI and/or with Phalloidin to visualize DNA and filamentous actin (F-actin), respectively. The wells were washed three times with PBS after each step.
Confocal images were acquired using a custom epifluorescent/confocal microscope composed of the following components: an Olympus IX81 inverted spinning disc confocal microscope base (Olympus America, Center Valley, Pa.), a Prior microscope stage for automated image acquisition (Prior Scientific, Rockland, Mass.), an Olympus 60X oil Immersion objective for confocal images (Olympus) and a Hamamatsu Electron Multiplying Charge-Coupled Device (EMCCD) camera (Hamamatsu, Hamamatsu, Shizuoka Prefecture, Japan). Images were captured using the SlideBook acquisition and analysis software, (Intelligent Imaging Innovations (3i), Denver, Colo.).
Images were collected with 8-10 image stacks with a 0.3 micron step size through the cells. Images were processed using Image J software (NIH).

MDA-MB-231 cells = test: Wound healing scratch assay, MDA-MB-231; assay type: cell-based; conditions: 10 μM ('at 10 μM and 5 μM respectively'), 0, 16, 24 h, FIG. 3A
Method: as §2
(§4) Wound Healing Scratch Assay. The cells were seeded in a 24-well plate in complete media and allowed to form a monolayer. After monolayer formation, a scratch was introduced with a sterile 0.1-10 μl pipet tip. The media was replaced with fresh media in the absence or presence of the indicated drug concentrations. Photomicrographs were taken at different time points with an Olympus IX71 microscope using a 10x air lens and CellSans Dimensions software. The images were processed with Image J software.

PC-3 MM-2 cells = test: Wound healing scratch assay, PC-3 MM-2; assay type: cell-based; conditions: 5 μM ('at 10 μM and 5 μM respectively'), 0, 16, 24 h, FIG. 3B
Method: as §2, §4

[3] = Anti-proliferation assay (MTS/PMS), MDA-MB-231; assay type: cell-based; conditions: human, MDA-MB-231 cells, MDA-MB-231, 25 μM
Method: (§5) Anti-proliferation Assays. Cells were seeded (2000/well, 100 μL) in 96-well plates and incubated overnight. Following incubation, compounds with varying concentrations in DMSO (1% DMSO final concentration) were added and cells were returned to the incubator for 72 h. After 72 h, the cell viability was determined using an MTS/PMS cell proliferation kit (Promega) per the manufacturer's instructions. Absorption value from 1% DMSO wells were used as 100% proliferation, and values were adjusted accordingly.

[4] = Anti-proliferation assay (MTS/PMS), PC-3 MM-2; assay type: cell-based; conditions: human, PC-3 MM-2 cells, PC-3 MM-2, 25 μM
Method: as §5

I477N mutant myocilin = test: Western blot of I477N mutant myocilin levels in tetracycline inducible HEK cells; assay type: cell-based; conditions: 30 μM, 24 h, HEK cells over-expressing I477N myocilin
Method: (§6) Cell Culture. Cell culture was performed as described in the art.^25 Tetracycline-inducible Hek cells stably overexpressing I477N mutant myocilin were grown and maintained in Dulbecco's Modified Eagle's Medium supplemented with 10% fetal bovine serum (Invitrogen, penicillin (100 units/mL), streptomycin ([…]) and 1% GlutaMAX (Invitrogen) at 37 C and 5% CO2. Stably overexpressing cells were selected for using hygromycin B ([…]) (InvivoGen) and G418 ([…]) (Gibco). I477N myocilin expression was induced with tetracycline ([…]) for 48H prior to drug treatment.
(§7) Inhibitor Treatment. Inhibitors were solubilized in DMSO (Sigma Aldrich), and diluted to documented concentrations. Cells were treated drop wise with inhibitors 24H prior to cell harvest. DMSO concentration was diluted to 1% total cell medium volume.
(§8) Cell Harvest. Cell harvest was performed as previously described.^21 24H after inhibitor treatment, culture medium was removed and cells were washed 2× with ice cold PBS. […]
(§9) Western Blotting. Western blot analysis was performed as previously described.^41 Cell lysates were prepared at identical protein concentrations, as determined by BCA analysis, in 2× Laemmli sample buffer (Bio-Rad) and denatured by boiling for 5 min at 100 C. […]

Akt = test: Western blot of cytosolic Hsp90 client protein Akt; assay type: cell-based; conditions: 30 μM (same concentration)
Method: as §6, §7, §8, §9

Hsp70 = test: Western blot of Hsp70 levels; assay type: cell-based; conditions: compared to 17-AAG (5 μM reference)
Method: as §6, §7, §8, §9

Sequence of Grp94 (recombinant cGrp94) (P41148 22-804): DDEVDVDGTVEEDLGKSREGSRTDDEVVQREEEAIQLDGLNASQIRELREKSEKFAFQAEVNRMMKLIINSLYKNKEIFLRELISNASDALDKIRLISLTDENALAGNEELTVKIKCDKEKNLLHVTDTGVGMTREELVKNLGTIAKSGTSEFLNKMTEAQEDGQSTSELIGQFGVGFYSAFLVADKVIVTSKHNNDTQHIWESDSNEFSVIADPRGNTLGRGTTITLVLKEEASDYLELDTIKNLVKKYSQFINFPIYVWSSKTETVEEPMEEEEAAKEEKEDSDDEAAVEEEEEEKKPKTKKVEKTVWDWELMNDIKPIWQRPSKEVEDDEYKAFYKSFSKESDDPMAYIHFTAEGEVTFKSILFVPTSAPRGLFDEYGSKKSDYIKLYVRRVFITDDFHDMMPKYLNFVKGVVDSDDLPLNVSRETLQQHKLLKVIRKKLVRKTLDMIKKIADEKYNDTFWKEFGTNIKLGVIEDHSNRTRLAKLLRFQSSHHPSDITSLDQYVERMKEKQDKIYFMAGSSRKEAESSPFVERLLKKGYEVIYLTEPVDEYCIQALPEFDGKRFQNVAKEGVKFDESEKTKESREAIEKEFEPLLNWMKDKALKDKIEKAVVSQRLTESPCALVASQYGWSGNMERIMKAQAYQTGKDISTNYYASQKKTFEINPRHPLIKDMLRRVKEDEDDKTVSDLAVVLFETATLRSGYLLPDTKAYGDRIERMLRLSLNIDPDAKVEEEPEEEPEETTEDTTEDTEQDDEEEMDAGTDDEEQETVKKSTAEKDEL

| Structure (SMILES) | Kd ([1]; apparent Kd, cGrp94 and FITC-GDA, triplicates, ± SEM, read-out: Kd Grp94) | Kd ([1]; read-out: apparent Kd towards Grp94) | Kd (Hsp90α) | levels of integrin α2, integrin αL, Syne2, VAMP2, and Rab10 [2] | F-actin localization (PC3-MM2 cells) | integrin α2 localization (PC3-MM2 cells) | migration of MDA-MB-231 cells (MDA-MB-231 cells) | migration of PC-3 MM-2 cells (PC-3 MM-2 cells) | viability at 72 h, 25 µM [3] | viability at 72 h, 25 µM [4] | mutant myocilin levels (I477N mutant myocilin) | Akt maturation (Akt) | Hsp70 levels (Hsp70) |
| --- | --- | --- | --- | --- | --- | --- | --- | --- | --- | --- | --- | --- | --- |
| NC(=O)c1ccc(-n2cccc2Cc2ccccc2F)cc1N[C@H]1CC[C@H](O)CC1 [Compound 8e, 4-(2-(2-fluorobenzyl)-1H-pyrrol-1-yl)-2-(((1r,4r)-4-hydroxycyclohexyl)amino)benzamide] | 720 ± 140 nM | ~724 nM | > 100000 nM | reduced levels | formed sporadic patches in the cytoplasm | localized as patches in the cytoplasm | inhibited migration | inhibited migration | > 95% | > 95% | – | – | – |
| NC(=O)c1ccc(-n2cccc2Cc2ccccc2O)cc1N[C@H]1CC[C@H](O)CC1 [Compound 8j, 4-(2-(2-hydroxybenzyl)-1H-pyrrol-1-yl)-2-(((1r,4r)-4-hydroxycyclohexyl)amino)benzamide] | – | – | – | reduced levels | formed sporadic patches in the cytoplasm | localized as patches in the cytoplasm | inhibited migration | inhibited migration | > 95% | > 95% | significant decrease | did not affect | remained unaffected |
